Columns and labels:
[1] = molecular target: T1, 5-hydroxytryptamine receptor 1A (Homo sapiens, UniProt P08908)
T1 sequence (P08908 whole entry): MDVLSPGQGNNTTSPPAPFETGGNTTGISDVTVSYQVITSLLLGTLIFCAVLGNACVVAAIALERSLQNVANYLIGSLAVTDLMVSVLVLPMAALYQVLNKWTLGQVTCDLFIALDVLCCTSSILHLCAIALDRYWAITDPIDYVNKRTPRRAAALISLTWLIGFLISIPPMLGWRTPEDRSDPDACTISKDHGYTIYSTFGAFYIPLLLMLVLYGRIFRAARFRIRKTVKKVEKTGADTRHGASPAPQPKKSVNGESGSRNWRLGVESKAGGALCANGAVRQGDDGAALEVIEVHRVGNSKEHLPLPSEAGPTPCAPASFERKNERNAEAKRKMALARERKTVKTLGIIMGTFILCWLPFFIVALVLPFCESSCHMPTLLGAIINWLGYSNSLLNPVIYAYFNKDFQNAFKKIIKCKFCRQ
Description: Binding affinity towards Serotonin 5-hydroxytryptamine 1A receptor by displacement of [3H]-(+)-8-OH-DPAT.

[2] = Metabolism of compound in monkey S9 microsomes ('+''indicates <20% largest observed peak); type: ADME, Microsome; conditions: cercopithecidae
[3] = Metabolism of compound in human liver slices (male) ('+''indicates <20% largest observed peak); type: ADME, tissue-based
Mus musculus [4] = organism: Mus musculus; assay: Metabolism of compound in mouse S9 microsomes ('+''indicates <20% largest observed peak); type: ADME
Rattus norvegicus [5] = organism: Rattus norvegicus; assay: Metabolism of compound in rat S9 microsomes; Trace; type: ADME
[6] = Metabolism of compound in rabbit S9 microsomes ('+''indicates <20% largest observed peak); type: ADME, Oryctolagus cuniculus, Microsome
D(3) dopamine receptor [7] = molecular target: T2, D(3) dopamine receptor (Homo sapiens, UniProt P35462)
Description: Binding affinity towards Dopamine receptor D3 by displacement of [3H](+)-7-OH-DPAT.

Mus musculus [8] = assay: Hypothermic effects in mice when administered orally.; type: functional; conditions: po
Mus musculus [9] = assay: Hypothermic effects in mice when administered subcutaneously.; type: functional; conditions: sc
Canis familiaris [10] = organism: Canis familiaris; assay: Metabolism of compound in dog S9 microsomes ('++++' indicates largest observed peak); type: ADME, Canis lupus familiaris
[11] = Metabolism of compound in monkey S9 microsomes ('+++'indicates 50-80% largest observed peak); type: ADME, Microsome; conditions: cercopithecidae
[12] = Metabolism of compound in human liver slices (male) ('++++' indicates largest observed peak); type: ADME, tissue-based
[13] = Metabolism of compound in human microsomes ('++++' indicates largest observed peak); type: ADME, Microsome
Mus musculus [14] = organism: Mus musculus; assay: Metabolism of compound in Mouse S9 microsomes ('++++'indicates largest observed peak); type: ADME
Rattus norvegicus [15] = organism: Rattus norvegicus; assay: Metabolism of compound in rat S9 microsomes ('++++' indicates largest observed peak); type: ADME
[16] = Metabolism of compound in mini pig S9 microsomes ('++++' indicates largest observed peak); type: ADME, Sus scrofa, Microsome
D(2) dopamine receptor [17] = molecular target: T3, D(2) dopamine receptor (Homo sapiens, UniProt P14416)
Description: Binding affinity towards Dopamine receptor D2 by displacement of [3H]U-86170.

Rattus norvegicus [18] = organism: Rattus norvegicus; assay: The stability relative to the U-93385 compound.
Canis familiaris [19] = organism: Canis familiaris; assay: Metabolism of compound in dog S9 microsomes; Trace; type: ADME, Canis lupus familiaris
[20] = Metabolism of compound in monkey S9 microsomes ('++++' indicates largest observed peak); type: ADME, Microsome; conditions: cercopithecidae
[21] = Metabolism of compound in human liver slices (male) ('++''indicates 20-50% largest observed peak); type: ADME, tissue-based
[22] = Metabolism of compound in human microsomes; Trace; type: ADME, Microsome
Mus musculus [23] = organism: Mus musculus; assay: Metabolism of compound in mouse S9 microsomes ('++++' indicates largest observed peak); type: ADME
[24] = Metabolism of compound in mini pig S9 microsomes ('+''indicates <20% largest observed peak); type: ADME, Sus scrofa, Microsome
Rattus norvegicus [25] = organism: Rattus norvegicus; assay: Metabolism of compound in rat S9 microsomes ('+''indicates <20% largest observed peak); type: ADME
[26] = Metabolism of compound in rabbit S9 microsomes ('++++' indicates largest observed peak); type: ADME, Oryctolagus cuniculus, Microsome
[27] = molecular target: T1, 5-hydroxytryptamine receptor 1A; remark: listed apart in the source
D(2) dopamine receptor [28] = molecular target: T3, D(2) dopamine receptor; remark: listed apart in the source
D(3) dopamine receptor [29] = molecular target: T2, D(3) dopamine receptor; remark: listed apart in the source
Canis familiaris [30] = organism: Canis familiaris; assay: Metabolism of compound in dog S9 microsomes ('++''indicates 20-50% largest observed peak); type: ADME, Canis lupus familiaris
[31] = Metabolism of compound in monkey S9 microsomes ('++''indicates 20-50% largest observed peak); type: ADME, Microsome; conditions: cercopithecidae
[32] = Metabolism of compound in human microsomes ('+''indicates <20% largest observed peak); type: ADME, Microsome

T2 sequence (P35462 whole entry): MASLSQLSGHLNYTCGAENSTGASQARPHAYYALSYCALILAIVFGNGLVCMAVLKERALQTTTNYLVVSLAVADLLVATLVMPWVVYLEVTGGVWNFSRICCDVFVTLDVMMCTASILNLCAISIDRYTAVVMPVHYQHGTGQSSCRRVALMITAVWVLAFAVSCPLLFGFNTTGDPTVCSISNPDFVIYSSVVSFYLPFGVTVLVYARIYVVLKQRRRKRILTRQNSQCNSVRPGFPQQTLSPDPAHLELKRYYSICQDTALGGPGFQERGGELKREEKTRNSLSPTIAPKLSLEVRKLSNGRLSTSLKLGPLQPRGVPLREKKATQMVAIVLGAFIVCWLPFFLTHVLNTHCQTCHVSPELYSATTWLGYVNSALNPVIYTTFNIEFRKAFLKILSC
T3 sequence (P14416 whole entry): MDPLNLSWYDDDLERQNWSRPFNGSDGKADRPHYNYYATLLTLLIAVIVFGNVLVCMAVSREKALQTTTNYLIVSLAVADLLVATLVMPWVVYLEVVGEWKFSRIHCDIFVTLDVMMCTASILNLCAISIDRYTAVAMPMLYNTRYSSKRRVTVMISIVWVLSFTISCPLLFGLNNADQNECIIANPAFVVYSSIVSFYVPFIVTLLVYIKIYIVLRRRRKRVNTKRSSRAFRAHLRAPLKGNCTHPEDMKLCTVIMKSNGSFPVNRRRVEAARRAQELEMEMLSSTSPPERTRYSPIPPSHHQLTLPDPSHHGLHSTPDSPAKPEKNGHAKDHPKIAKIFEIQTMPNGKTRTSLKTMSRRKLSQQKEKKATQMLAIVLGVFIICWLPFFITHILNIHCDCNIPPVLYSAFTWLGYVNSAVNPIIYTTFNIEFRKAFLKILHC

| SMILES | Ki [1] | Metabolism [6] | Ki (D(3) dopamine receptor [7]) | ED50 (Mus musculus [8]) | ED50 (Mus musculus [9]) | Ki (D(2) dopamine receptor [17]) | Ki [27] | Ki (D(2) dopamine receptor [28]) | Ki (D(3) dopamine receptor [29]) | other results |
| --- | --- | --- | --- | --- | --- | --- | --- | --- | --- | --- |
| CN[C@@H]1Cc2cccc3[nH]c(=O)n(c23)C1 [SUMANIROLE] | 73 nM | Partially active | 2330 nM | 0.41 mg/kg | 0.73 mg/kg |  |  |  |  | Metabolism [2]: Partially active; Metabolism [3]: Partially active; Metabolism (Mus musculus [4]): Partially active; Metabolism (Rattus norvegicus [5]): Partially active |
| CN(C)[C@@H]1Cc2cccc3ncn(c23)C1 | > 3520 nM | Partially active | 2950 nM | 0.073 mg/kg | 0.073 mg/kg | 1280 nM |  |  |  | Metabolism (Canis familiaris [10]): Partially active; Metabolism [11]: Partially active; Metabolism [12]: Partially active; Metabolism [13]: Partially active; Metabolism (Mus musculus [14]): Partially active; Metabolism (Rattus norvegicus [15]): Partially active; Metabolism [16]: Partially active; Relative stability (Rattus norvegicus [18]): 1 |
| CN(C)[C@@H]1Cc2cccc3[nH]c(=O)n(c23)C1 |  |  | 1930 nM | 1.3 mg/kg | 0.41 mg/kg | 12 nM |  |  |  | Metabolism (Canis familiaris [19]): Partially active; Metabolism [20]: Partially active; Metabolism [21]: Partially active; Metabolism [22]: Partially active; Metabolism (Mus musculus [23]): Partially active; Metabolism [24]: Partially active; Metabolism (Rattus norvegicus [25]): Partially active; Metabolism [26]: Partially active |
| CCCN(CCC)CCc1cccc2c1CC(=O)N2 [ROPINIROLE] | 1710 nM |  |  |  |  | 7.2 nM |  |  |  |  |
| CN(C)[C@H]1Cc2cccc3nc(O)n(c23)C1 |  |  |  |  | 17.3 mg/kg |  | Not Active | Not Active | Not Active |  |
| CN(C)[C@H]1Cc2cccc3ncn(c23)C1 |  |  |  |  | 17.3 mg/kg |  | Not Active | Not Active | Not Active |  |
| CC(C)C[C@H]1C(=O)N2CCC[C@H]2[C@]2(O)O[C@](NC(=O)[C@@H]3C=C4c5cccc6[nH]c(Br)c(c56)C[C@H]4N(C)C3)(C(C)C)C(=O)N12 [BROMOCRIPTINE] | 24 nM |  | 87 nM |  |  | 10 nM |  |  |  |  |
| CCCN[C@@H]1Cc2cccc3nc(O)n(c23)C1 |  |  | 36 nM | 0.41 mg/kg | 0.01 mg/kg |  |  |  |  |  |
| CN[C@H]1Cc2cccc3nc(O)n(c23)C1 |  |  |  |  |  |  | Not Active | Not Active | Not Active |  |
| CN[C@@H]1Cc2cccc3ncn(c23)C1 | > 3260 nM | Partially active | 2460 nM | 0.73 mg/kg | 0.31 mg/kg | 355 nM |  |  |  | Metabolism (Canis familiaris [30]): Partially active; Metabolism [31]: Partially active; Metabolism [21]: Partially active; Metabolism [32]: Partially active; Metabolism (Mus musculus [4]): Partially active; Metabolism [24]: Partially active; Metabolism (Rattus norvegicus [25]): Partially active; Relative stability (Rattus norvegicus [18]): 0.86 |

Source: ChEMBL document CHEMBL1130416, “Synthesis and biological activities of (R)-5,6-dihydro-N,N-dimethyl-4H-imidazo[4,5,1-ij]quinolin-5-amine and its metabolites” (J Med Chem, 1997)
